Laboratory results taken from ChEMBL document CHEMBL1153748 (J Med Chem, 2010).

Legend:
[1] = AUC ((0 to 24 hrs)) in Balb/c mouse at 10 mg/kg, po qd; conditions: plasma
[2] = molecular target: T1, Peroxisome proliferator-activated receptor delta (Homo sapiens, UniProt Q03181)
T1 sequence (Q03181 whole entry): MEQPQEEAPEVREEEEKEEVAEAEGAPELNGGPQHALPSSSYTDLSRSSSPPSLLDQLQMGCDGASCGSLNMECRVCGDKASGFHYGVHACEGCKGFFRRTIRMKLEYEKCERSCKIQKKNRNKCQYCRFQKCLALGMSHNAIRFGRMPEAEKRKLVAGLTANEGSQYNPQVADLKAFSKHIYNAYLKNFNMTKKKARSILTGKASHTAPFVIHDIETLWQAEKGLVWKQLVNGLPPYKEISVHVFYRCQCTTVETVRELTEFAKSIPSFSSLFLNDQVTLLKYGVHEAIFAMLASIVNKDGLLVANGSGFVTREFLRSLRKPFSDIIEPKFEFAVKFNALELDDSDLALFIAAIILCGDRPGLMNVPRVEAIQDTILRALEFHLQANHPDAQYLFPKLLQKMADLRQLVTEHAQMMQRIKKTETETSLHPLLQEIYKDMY

[3] = molecular target: T1, Peroxisome proliferator-activated receptor delta; remark: listed apart in the source
Mus musculus [4] = assay: Upregulation of PDK4 expression in C57BL/6 mouse at 10 mg/kg, po qd relative to control; assay type: functional
[5] = Cmax in Balb/c mouse at 10 mg/kg, po qd; conditions: in vivo
[6] = molecular target: T2, Peroxisome proliferator-activated receptor alpha (Homo sapiens, UniProt Q07869); assay: Agonist activity at human PPARalpha ligand binding domain expressed in human 293T cells co-transfected with Gal4-DBD by luciferase transactivation assay; assay type: cell-based; conditions: read-out: EC50
T2 sequence (Q07869 whole entry): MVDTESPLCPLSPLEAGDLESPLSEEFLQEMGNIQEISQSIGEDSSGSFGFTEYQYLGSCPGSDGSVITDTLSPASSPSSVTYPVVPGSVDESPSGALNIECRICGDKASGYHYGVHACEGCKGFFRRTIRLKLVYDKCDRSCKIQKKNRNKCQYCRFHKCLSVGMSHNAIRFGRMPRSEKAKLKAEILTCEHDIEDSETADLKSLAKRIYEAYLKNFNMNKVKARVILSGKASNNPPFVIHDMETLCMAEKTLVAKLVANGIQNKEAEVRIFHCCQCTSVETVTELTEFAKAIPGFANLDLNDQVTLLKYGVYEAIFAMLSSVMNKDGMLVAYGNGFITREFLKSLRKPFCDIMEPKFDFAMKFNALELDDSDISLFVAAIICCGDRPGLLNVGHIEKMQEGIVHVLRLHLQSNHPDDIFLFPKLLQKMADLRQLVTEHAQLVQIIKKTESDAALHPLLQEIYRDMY

[7] = Half life in Balb/c mouse at 10 mg/kg, po qd; conditions: in vivo
Mus musculus [8] = assay: Upregulation of UCP3 expression in C57BL/6 mouse at 10 mg/kg, po qd relative to control; assay type: functional
[9] = molecular target: Peroxisome proliferator-activated receptor delta (Homo sapiens) (UniProt Q03181); assay: Agonist activity at human PPARdelta by FRET assay
[10] = molecular target: T3, Peroxisome proliferator-activated receptor gamma (Homo sapiens, UniProt P37231); assay type: cell-based, 293T; conditions: read-out: EC50
T3 sequence (P37231 whole entry): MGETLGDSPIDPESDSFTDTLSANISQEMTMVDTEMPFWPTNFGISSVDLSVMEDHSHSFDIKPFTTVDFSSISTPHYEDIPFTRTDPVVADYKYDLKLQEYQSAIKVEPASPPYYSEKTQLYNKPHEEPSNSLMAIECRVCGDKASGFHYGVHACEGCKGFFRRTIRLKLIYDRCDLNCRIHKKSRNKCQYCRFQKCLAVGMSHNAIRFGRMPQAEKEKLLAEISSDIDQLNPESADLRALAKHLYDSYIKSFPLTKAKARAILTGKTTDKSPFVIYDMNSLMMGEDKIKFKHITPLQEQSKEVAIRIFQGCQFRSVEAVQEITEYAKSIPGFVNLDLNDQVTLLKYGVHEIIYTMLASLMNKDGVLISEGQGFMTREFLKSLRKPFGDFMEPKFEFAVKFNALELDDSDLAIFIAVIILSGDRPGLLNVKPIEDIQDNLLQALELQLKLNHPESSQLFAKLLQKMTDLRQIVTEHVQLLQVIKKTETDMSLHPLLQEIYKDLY

[11] = Oral bioavailability in Balb/c mouse at 10 mg/kg daily; conditions: in vivo
[12] = molecular target: T4, Peroxisome proliferator-activated receptor alpha (Homo sapiens) (UniProt Q07869); assay: Agonist activity at human PPARalpha ligand binding domain expressed in human 293T cells co-transfected with Gal4-DBD by luciferase transactivation assay relative to KRP297; assay type: cell-based
T4 sequence (whole entry): T2 sequence (Q07869 whole entry)

SMILES	AUC at 24 h [1] [µM·h]	EC50 [2] [nM]	EC50 [3] [nM]	fold change (FC) (Mus musculus [4])	Cmax [5] [µM]	EC50 [6] [nM]	half-life [7] [h]	fold change (FC) (Mus musculus [8])	EC50 [9] [nM]	EC50 [10] [nM]	bioavailability [11] [%]	Efficacy [12] [%]
COc1ccc(-c2nc(COc3ccc(OCC(=O)O)c(C)c3)sc2-c2ccc(OC(F)(F)F)cc2)cn1	196	17	12	1.9	17.3	> 10000	4.6	2.5	90	> 10000	140	–
Cc1cc(OCc2nc(-c3ccc(OC(C)C)cc3)c(-c3cccc(OC(F)(F)F)c3)s2)ccc1OCC(=O)O	20.3	9	16	1.7	2.4	–	3.2	1.9	46	–	49	–
COc1ccc(-c2nc(COc3ccc(OCC(=O)O)c(C)c3)oc2-c2ccc(OC(F)(F)F)cc2)cn1	96.8	8	10	1.2	13.7	> 10000	2.5	1.4	97	> 10000	89	–
Cc1cc(OCc2nc(-c3ccc(N4CCOCC4)cc3)c(-c3ccc(-c4ccccc4)cc3)s2)ccc1OCC(=O)O	31.9	18	14	1.4	2.7	–	5.1	2.5	72	–	30	–
Cc1cc(OCc2nc(-c3ccc(OC(C)C)cc3)c(-c3ccc(OC(F)(F)F)cc3)s2)ccc1OCC(=O)O	54.1	7	10	1.9	3.7	> 10000	9	2.4	26	> 10000	88	–
Cc1cc(OCc2nc(-c3ccc(N4CCOCC4)nc3)c(-c3ccc(OC(F)(F)F)cc3)o2)ccc1OCC(=O)O	1.95	2	–	–	0.7	1200	3.8	–	5	2490	18	46
Cc1cc(OCc2nc(-c3ccc(OC(C)C)cc3)c(-c3ccc(-c4ccccc4)cc3)s2)ccc1OCC(=O)O	–	9	10	1.5	–	–	–	2.4	29	–	–	–
Cc1cc(OCc2nc(-c3cnc(OC(C)C)nc3)c(-c3ccc(OC(F)(F)F)cc3)s2)ccc1OCC(=O)O	20.1	6	14	1.6	3.5	> 10000	2.3	1.5	10	> 10000	88	–
Cc1cc(OCc2nc(-c3ccc(OC4CCCC4)cc3)c(-c3ccc(OC(F)(F)F)cc3)s2)ccc1OCC(=O)O	16.1	10	15	1.9	1.2	> 10000	7.6	2.8	31	> 10000	19	–
Cc1cc(OCc2nc(-c3ccc(OC(C)C)cc3)c(-c3ccc(C(F)(F)F)cc3)s2)ccc1OCC(=O)O	37.3	11	16	1.1	2.8	–	3.9	1.7	20	–	70	–
CCCc1ccc(-c2oc(COc3ccc(OCC(=O)O)c(C)c3)nc2-c2cnc(OC)nc2)cc1	6.42	9	10	2	2.2	–	2.7	2.5	30	–	41	–
Cc1cc(SCc2sc(-c3ccc(C(F)(F)F)cc3)nc2C)ccc1OCC(=O)O [GW501516]	29.8	–	–	2.5	3.9	–	4.4	3.2	–	–	–	–
Cc1cc(OCc2nc(-c3cccnc3)c(-c3ccc(-c4ccccc4)cc3)o2)ccc1OCC(=O)O	0.814	8	6	–	0.4	–	4	–	30	–	10	–
Cc1cc(OCc2nc(-c3ccc(OC(C)C)nc3)c(-c3ccc(OC(F)(F)F)cc3)s2)ccc1OCC(=O)O	62.9	8	12	1.9	4.7	> 10000	10.8	2.9	13	> 10000	72	–
Cc1cc(OCc2nc(-c3ccc(OC(C)C)nc3)c(-c3ccc(OC(F)(F)F)cc3)o2)ccc1OCC(=O)O	95.8	2490	14	1.5	9.1	790	5.3	2.5	7	70000	144	20
Cc1cc(OCc2nc(-c3ccc(OC4CCCC4)cc3)c(-c3ccc(OC(F)(F)F)cc3)o2)ccc1OCC(=O)O	23.3	4	12	2.1	2.4	910	3.1	2.5	9	> 10000	35	56
Cc1cc(OCc2nc(-c3ccc(-c4ccccc4)cc3)cs2)ccc1OCC(=O)O	–	340	–	–	–	480	–	–	–	> 10000	–	42
Cc1cc(OCc2nc(-c3ccc(OC(C)C)cc3)c(-c3ccc(OC(F)(F)F)cc3)o2)ccc1OCC(=O)O	104	3	13	2.3	7.8	2600	5.1	2.2	9	> 10000	129	43
CCCc1ccc(-c2sc(COc3ccc(OCC(=O)O)c(C)c3)nc2-c2ccc(OC(C)C)cc2)cc1	–	11	13	–	–	–	–	–	17	–	–	–
